Primed or numbered codes have the meaning given here. Ends that are not written are not given here. * marks the point of attachment. Biotin = O=C1N[C@H]2[C@H](CS[C@H]2CCCCC(=O)*)N1; ttds″ = trioxatridecan-succinamic acid linker
Assays:
[1] = tested on: Jurkat cell extract preys; test: PDZ-AP-MS, biotinylated MBP-PDZ baits; format: binding, human
Experimental: (§1) For PDZ-AP-MS experiments, PDZ domains were cloned as His6-AviTag-MBP-PDZ constructs. For co-expression with BirA, E. coli BL21(DE3) cells were co-transformed with His6-AviTag-MBP, or His6-AviTag-MBP-PDZ-coding and PET21a-BirA (Addgene #20857) plasmids. Simultaneously to IPTG induction, 50 µM biotin was added to the media. After cell harvesting, the lysis buffer was also supplemented with 50 µM biotin. Otherwise, expression and double affinity purification was identical as previously described in details.
(§2) For PBM-AP-MS experiments, 30 μl streptavidin resin was mixed with biotin or peptide at 50–60 μM concentration in 6–6.5 resin volume for 60 min to achieve resin saturation. For PDZ-AP-MS experiments, 30 μl streptavidin resin was mixed with biotinylated MBP or MBP-PDZ at 40-50 μM concentration in >1000× resin volume for 60 min to achieve resin saturation. After saturation, resins were washed a single time (ten resin volume, holdup buffer), and were depleted with biotin (1 mM biotin, 5–10 resin volume, 10 min). Finally, resins were washed two times. 0.5 ml 2 mg/ml cell lysate was added to the dry resin (1 mg total input) and were incubated at 4 °C for 2 h. Then, the beads were washed three times with 10 resin volume buffer containing: 50 mM TRIS pH 8.5, 150 mM NaCl, 1% TritonX-100, 10× complete EDTA-free protease inhibitor cocktail, 2 mM EDTA, 1 mM TCEP. Then, the beads were washed two times with ten resin volume buffer containing: 50 mM TRIS pH 8.5, 150 mM NaCl, 1 mM TCEP. Finally, captured protein was eluted from the resin in two steps and the eluted fractions were pooled. For each elution the beads were incubated for 30 min with three resin volume buffer containing: 20 mM TRIS pH8.5, 100 mM NaCl, 500 μM TCEP, 8 M Urea. Between each step, the beads were separated by mild centrifugation and the supernatant was removed by gentle pipetting.
(§3) The samples were precipitated with TCA 20% overnight at 4 °C and centrifuged at 14,000 rpm for 10 min at 4 °C. The protein pellets were washed twice with 1 mL cold acetone and air dried. The protein extracts were solubilized in urea 8 M, reduced with 5 mM TCEP for 30 min, and alkylated with 10 mM iodoacetamide for 30 min in the dark. Double digestion was performed at 37 °C with 500 ng endoproteinase Lys-C for 4 h, followed by fourfold dilution and an overnight digestion with 500 ng trypsin. Peptide mixtures were then desalted on C18 spin-column and dried on Speed-Vacuum.
(§4) Samples were analyzed using an Ultimate 3000 nano-RSLC (Thermo Scientific, San Jose California) coupled in line with a LTQ-Orbitrap ELITE mass spectrometer via a nano-electrospray ionization source (Thermo Scientific, San Jose California). […]

[2] = molecular target: MAGI1_2 PDZ (Homo sapiens, UniProt Q96QZ7); test: Competitive fluorescence polarization (FP) assay; format: binding; conditions: read-out: pKd FP (converted)
Experimental: In direct fluorescence polarization assay, the fluorophore label can interfere with affinity determination and can cause large experimental bias. For this reason, affinities were determined with competitive FP measurements where the bound fluorescent peptide is chased out by increasing concentration of unlabeled competitor. In the fitting procedure, affinities of both peptides are considered. Each PDZ-domain was first tested with labeled peptides in direct experiments and then optimal labeled peptides were used in competitive experiments.
Double affinity-purified His6-MBP-PDZ were used for affinity measurements by FP. Fluorescence polarization was measured with a PHERAstar microplate reader by using 485 ± 20 nm and 528 ± 20 nm band-pass filters for excitation and emission, respectively. […] In total, the polarization of the probe was measured at eight different protein concentrations (whereas one contained no protein and corresponded to the free peptide). […] The dissociation constants of the direct and competitive FP experiments were obtained by fitting the measured direct data with a quadratic binding equation first and by fitting the measured competitive data with a competitive equation, using several obtained parameters from the first fit[71]. In part, competitive fluorescence polarization data were taken from refs. [22],[21]. […]

[3] = molecular target: SYNJ2BP PDZ (Homo sapiens, UniProt P57105); test: Holdup assay; format: binding
[4] = tested on: SCRIB; test: PBM-AP-MS from Jurkat extract; format: binding, Homo sapiens; conditions: Jurkat extract; prey SCRIB (Q14160); PBM bait vs biotin control
[5] = tested on: LIN7C; test: PBM-AP-MS from Jurkat extract; format: binding, Homo sapiens; conditions: Jurkat extract; prey LIN7C (Q9NUP9); PBM bait vs biotin control
[6] = tested on: DLG1; test: PBM-AP-MS from Jurkat extract; format: binding, Homo sapiens; conditions: Jurkat extract; prey DLG1 (Q12959); PBM bait vs biotin control
[7] = tested on: MAGI1; test: PBM-AP-MS from Jurkat extract; format: binding, Homo sapiens; conditions: Jurkat extract; prey MAGI1 (Q96QZ7); PBM bait vs biotin control
[8] = tested on: MAGI3; test: PBM-AP-MS from HaCat extract; format: binding, Homo sapiens; conditions: prey MAGI3 (Q5TCQ9), PBM bait vs biotin control (Biot03)
Text: (§5) Supplement 41467_2022_33018_MOESM5_ESM.xlsx, sheet "HaCat HPV59-E6" | column: -LOG(P-value); Difference log2; Ratio HPV59E6/Biot03

[9] = tested on: MPP5; test: PBM-AP-MS from HaCat extract; format: binding, Homo sapiens; conditions: prey MPP5 (Q8N3R9), PBM bait vs biotin control (Biot03)
Text: as §5

[10] = tested on: MPP5; test: PBM-AP-MS from Jurkat extract; format: binding, Homo sapiens; conditions: prey MPP5 (Q8N3R9), PBM bait vs biotin control
Text: Supplement 41467_2022_33018_MOESM5_ESM.xlsx, sheet "Jurkat HPV59-E6" | column: -LOG(P-Value); Difference log2; Ratio HPV59/biot

[11] = tested on: CASK; test: PBM-AP-MS from HaCat extract; format: binding, Homo sapiens; conditions: prey CASK (O14936), PBM bait vs biotin control (Biot03)
[12] = tested on: MPP7; test: PBM-AP-MS from HaCat extract; format: binding, Homo sapiens; conditions: prey MPP7 (Q5T2T1), PBM bait vs biotin control (Biot03)
[13] = tested on: LIN7C; test: PBM-AP-MS from HaCat extract; format: binding, Homo sapiens; conditions: prey LIN7C (Q9NUP9), PBM bait vs biotin control (Biot03)
[14] = tested on: HaCat cell extract preys; test: PDZ-AP-MS, biotinylated MBP-PDZ baits; format: binding, human
Experimental: as §1, §2, §3, §4

Sequence of MAGI1_2 PDZ (Q96QZ7 472-554 limits assumed): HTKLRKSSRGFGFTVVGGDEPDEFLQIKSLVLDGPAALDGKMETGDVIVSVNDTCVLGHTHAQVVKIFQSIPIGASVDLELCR
Sequence of SYNJ2BP PDZ (P57105 13-100 limits assumed): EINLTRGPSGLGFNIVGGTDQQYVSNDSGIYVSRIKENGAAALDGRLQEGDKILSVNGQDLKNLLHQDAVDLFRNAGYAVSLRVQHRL

ANXA2
Difference log2 ([1]; bait SCRIB_2 PDZ vs MBP, enrichment of prey): 5.895
Ratio SCRIB_2/MBP ([1]; bait SCRIB_2 PDZ, fold change of prey): 59.5253

CC(C)C[C@H](NC(=O)[C@H](CCC(N)=O)NC(=O)[C@@H](NC(=O)[C@H](CCC(=O)O)NC(=O)[C@H](CCCNC(=N)N)NC(=O)[C@H](CCCNC(=N)N)NC(=O)[C@@H](NC(=O)[C@H](CCCNC(=N)N)NC(=O)[C@H](CO)NC(=O)[C@H](CO)NC(=O)CCC(=O)NCCCOCCOCCOCCCNC(=O)CCCC[C@@H]1SC[C@@H]2NC(=O)N[C@@H]21)[C@@H](C)O)[C@@H](C)OP(=O)(O)O)C(=O)O [HPV16-E6_-2P]
Kd [2]: 2520 µM

CC(C)C[C@H](NC(=O)[C@H](CCC(N)=O)NC(=O)[C@@H](NC(=O)[C@H](CCC(=O)O)NC(=O)[C@H](CCCNC(=N)N)NC(=O)[C@H](CCCNC(=N)N)NC(=O)[C@@H](NC(=O)[C@H](CCCNC(=N)N)NC(=O)[C@H](CO)NC(=O)[C@@H](N)CO)[C@@H](C)O)[C@@H](C)O)C(=O)O [HPV16E6]
Kd [3]: 6.56 µM

HPV59-E6 ({Biotin-ttds″}-QRQARSETLV)
Difference log2 [4]: 4.363
Ratio bait/biot [4]: 20.5739
Difference log2 [5]: 5.541
Ratio bait/biot [5]: 46.5688
Difference log2 [6]: 9.078
Ratio bait/biot [6]: 540.448
Difference log2 [7]: 6.509
Ratio bait/biot [7]: 91.0533
Difference log2 [8]: 2.908
Ratio bait/Biot03 [8]: 7.505
Difference log2 [9]: 3.6952
Ratio bait/Biot03 [9]: 12.9528
Difference log2 [10]: 4.755
Ratio bait/biot [10]: 26.9941
Difference log2 [11]: 7.278
Ratio bait/Biot03 [11]: 155.163
Difference log2 [12]: 5.592
Ratio bait/Biot03 [12]: 48.2208
Difference log2 [13]: 8.47
Ratio bait/Biot03 [13]: 354.524

EXOC1
Difference log2 ([14]; bait DLG1_2 PDZ vs MBP, enrichment of prey): 4.458
Ratio DLG1_2/MBP ([14]; bait DLG1_2 PDZ, fold change of prey): 21.9853

Source: paper PMC9482650, “Quantitative fragmentomics allow affinity mapping of interactomes” (Nature Communications, 2022)
